pIC50: −log10 of the molar value.
Experiments:
BRDT-BD2 = BRDT-BD2 (Homo sapiens (Human), UniProt Q58F21); assay: AlphaScreen bromodomain proximity assay (competition with biotinylated (+)-JQ1), BRDT-BD2; type: binding
BRDT-BD1 = BRDT-BD1 (Homo sapiens (Human), UniProt Q58F21); assay: AlphaScreen bromodomain proximity assay (competition with biotinylated (+)-JQ1), BRDT-BD1; type: binding; conditions: NE: no effect at 10 μM
[1] = Metabolic stability assay in mouse liver microsomes; type: in vitro ADME; conditions: in words
Protocol: Compounds 3-10, 15, 17, and 20-22 (2.0 μM) were incubated in the mouse or human liver microsomes (0.5 mg protein/mL) at 37° C. […] The reaction mixtures were centrifuged at rcf 15,000 for 15 min. […] The column temperature was maintained at 40° C. […] Q Exactive MS was operated in positive or negative mode with electrospray ionization.

Row | SMILES | pIC50 (BRDT-BD2) | pIC50 (BRDT-BD1) | mouse microsomal stability [1]
1 | CNC(=O)c1ccc(C(=O)Nc2cc(NC(=O)c3ccc4c(c3)c(-c3ccc(OC)cc3)nn4C)ccc2C)cc1 [compound 11] | 6.28 | < 5.00 | –
2 | CNC(=O)c1ccc(C(=O)Nc2cc(NC(=O)c3ccc4c(c3)c(-c3cnc(N)nc3)nn4C)ccc2C)cc1 [compound 13, N^1-(5-(3-(2-Aminopyrimidin-5-yl)-1-methyl-1H-indazole-5-carboxamido)-2-methylphenyl)-N^4-methylterephthalamide] | 6.86 | < 5.00 | –
3 | CNC(=O)c1ccc(C(=O)Nc2cc(NC(=O)c3ccc4c(c3)c(-c3cnc(N)cc3C)nn4C)ccc2C)cc1 [compound 15] | 7.66 | – | high mouse microsomal stability
4 | CC(=O)Nc1cc(NC(=O)c2ccc3c(c2)c(-c2ccc(N)nc2)nn3C)ccc1C [compound 17, N-(3-Acetamido-4-methylphenyl)-3-(6-aminopyridin-3-yl)-1-methyl-1H-indazole-5-carboxamide] | 7.33 | < 5.00 | high mouse microsomal stability
5 | CCn1nc(-c2ccc(N)nc2)c2cc(C(=O)Nc3ccc(C)c(NC(C)=O)c3)ccc21 [compound 18, N-(3-Acetamido-4-methylphenyl)-3-(6-aminopyridin-3-yl)-1-ethyl-1H-indazole-5-carboxamide] | 7.10 | < 5.00 | –
6 | CC(=O)Nc1cc(NC(=O)c2ccc3c(c2)c(-c2ccc(N)nc2)nn3C(C)C)ccc1C [compound 19, N-(3-Acetamido-4-methylphenyl)-3-(6-aminopyridin-3-yl)-1-isopropyl-1H-indazole-5-carboxamide] | 6.60 | < 5.00 | –
7 | CC(=O)Nc1cccc(NC(=O)c2ccc3c(c2)c(-c2ccc(N)cc2C)nn3C)c1 [compound 21, N-(3-Acetamidophenyl)-3-(4-amino-2-methylphenyl)-1-methyl-1H-indazole-5-carboxamide] | 7.85 | < 5.00 | high mouse microsomal stability
8 | COc1ccc(NC(=O)c2ccc3c(c2)c(-c2ccc(N)cc2C)nn3C)cc1NC(=O)c1ccccc1 [compound 23, 3-(4-Amino-2-methylphenyl)-N-(3-benzamido-4-methoxyphenyl)-1-methyl-1H-indazole-5-carboxamide] | 7.46 | < 5.00 | –
9 | COc1ccc(NC(=O)c2ccc3c(c2)c(-c2ccc(N)cc2C)nn3C)cc1 [compound 24, 3-(4-Amino-2-methylphenyl)-N-(4-methoxyphenyl)-1-methyl-1H-indazole-5-carboxamide] | 7.27 | < 5.00 | –
10 | Cc1cc(N)ccc1-c1nn(C)c2ccc(C(=O)Nc3ccccc3)cc12 [compound 25, 3-(4-Amino-2-methylphenyl)-1-methyl-N-phenyl-1H-indazole-5-carboxamide] | 7.05 | < 5.00 | –
11 | COc1ccc(N(C)C(=O)c2ccc3c(c2)c(-c2ccc(N)cc2C)nn3C)cc1 [compound 26, 3-(4-Amino-2-methylphenyl)-N-(4-methoxyphenyl)-N,1-dimethyl-1H-indazole-5-carboxamide] | < 6.00 | < 5.00 | –
12 | COc1ccc(NC(=O)c2ccc3nn(C)c(-c4ccc(N)cc4C)c3c2)cc1 [compound 27, 3-(4-Amino-2-methylphenyl)-N-(4-methoxyphenyl)-2-methyl-2H-indazole-5-carboxamide] | 4.76 | < 5.00 | –
13 | CNC(=O)c1ccc2c(c1)c(-c1ccc(N)cc1C)nn2C [compound 55, 3-(4-Amino-2-methylphenyl)-N,1-dimethyl-1H-indazole-5-carboxamide] | 6.01 | < 5.00 | –
14 | Cc1cc(N)ccc1-c1nn(C)c2ccc(C(=O)Nc3ccc(OCC4CC4)cc3)cc12 [compound 65, 3-(4-Amino-2-methylphenyl)-N-(4-(cyclopropylmethoxy)phenyl)-1-methyl-1H-indazole-5-carboxamide] | 7.01 | < 5.00 | –
15 | CNC(=O)c1ccc2c(c1)c(-c1cc3ccccc3n1C)nn2C [compound 67, N,1-Dimethyl-3-(1-methyl-1H-indol-2-yl)-1H-indazole-5-carboxamide] | 6.58 | < 5.00 | –
16 | COc1ccc(NC(=O)c2ccc3c(c2)c(-c2cc4ccccc4n2C)nn3C)cc1Br [compound 68, N-(3-Bromo-4-methoxyphenyl)-1-methyl-3-(1-methyl-1H-indol-2-yl)-1H-indazole-5-carboxamide] | 6.56 | – | –
17 | COc1ccc(NC(=O)c2ccc3c(c2)c(-c2cc4ccccc4n2C)nn3C)cc1I [compound 69, N-(3-Iodo-4-methoxyphenyl)-1-methyl-3-(1-methyl-1H-indol-2-yl)-1H-indazole-5-carboxamide] | 6.30 | – | –
18 | COc1ccc(NC(=O)c2ccc3c(c2)c(-c2cc4ccccc4n2C)nn3C)cc1C(F)(F)F [compound 70, N-(4-Methoxy-3-(trifluoromethyl)phenyl)-1-methyl-3-(1-methyl-1H-indol-2-yl)-1H-indazole-5-carboxamide] | 6.20 | – | –
19 | COc1ccc(NC(=O)c2ccc3c(c2)c(-c2cc4ccccc4n2C)nn3C)cc1C#N [compound 71, N-(3-Cyano-4-methoxyphenyl)-1-methyl-3-(1-methyl-1H-indol-2-yl)-1H-indazole-5-carboxamide] | 6.77 | – | –
20 | COc1ccc(NC(=O)c2ccc3c(c2)c(-c2cc4ccccc4n2C)nn3C)cc1-c1ccccc1 [compound 72, N-(6-Methoxy-[1,1′-biphenyl]-3-yl)-1-methyl-3-(1-methyl-1H-indol-2-yl)-1H-indazole-5-carboxamide] | 5.62 | – | –
21 | COc1ccc(NC(=O)c2ccc3c(c2)c(-c2cc4ccccc4n2C)nn3C)cc1S(N)(=O)=O [compound 73, N-(4-Methoxy-3-sulfamoylphenyl)-1-methyl-3-(1-methyl-1H-indol-2-yl)-1H-indazole-5-carboxamide] | 6.95 | – | –
22 | COc1ccc(NC(=O)c2ccc3c(c2)c(-c2cc4ccccc4n2C)nn3C)cc1NC(C)=O [compound 74, N-(3-Acetamido-4-methoxyphenyl)-1-methyl-3-(1-methyl-1H-indol-2-yl)-1H-indazole-5-carboxamide] | 7.49 | – | –
23 | COc1ccc(NC(=O)c2ccc3c(c2)c(-c2cc4ccccc4n2C)nn3C)c(C(N)=O)c1 [compound 75, N-(2-Carbamoyl-4-methoxyphenyl)-1-methyl-3-(1-methyl-1H-indol-2-yl)-1H-indazole-5-carboxamide] | 5.36 | – | –
24 | Cc1cc(N)ccc1-c1nn(C)c2ccc(-c3cnc(C(F)(F)F)nc3)cc12 [compound 77, 3-Methyl-4-(1-methyl-5-(2-(trifluoromethyl)pyrimidin-5-yl)-1H-indazol-3-yl)aniline] | 5.44 | < 5.00 | –
25 | Cc1cc(N)ccc1-c1nn(C)c2ccc(-c3cccnc3)cc12 [compound 78, 3-Methyl-4-(1-methyl-5-(pyridin-3-yl)-1H-indazol-3-yl)aniline] | < 5.00 | 5.61 | –
26 | Cc1ccc(-c2ccc3c(c2)c(-c2ccc(N)cc2C)nn3C)cn1 [compound 79, 3-Methyl-4-(1-methyl-5-(6-methylpyridin-3-yl)-1H-indazol-3-yl)aniline] | < 5.00 | 5.49 | –
27 | COc1ccc(-c2ccc3c(c2)c(-c2ccc(N)cc2C)nn3C)cn1 [compound 80, 4-(5-(6-Methoxypyridin-3-yl)-1-methyl-1H-indazol-3-yl)-3-methylaniline] | < 5.00 | 5.99 | –

From patent publication US20240158355A1, “BET SUBFAMILY INHIBITORS AND METHODS USING SAME” (Baylor College of Medicine, priority 2021, published 2024)
